Assays:
NF-κβ = test: In vitro induction of NF-κβ in THP1 dual cells (SEAP reporter); assay type: cell-based
Method: Example 2. In Vitro Induction of IRF and NF-κβ in THP1 Cells
THP1 dual cells grown in complete media were treated with various concentrations of a compound of the present disclosure or DMSO control. Dual cells carry both secreted embryonic alkaline phosphatase (SEAP) reporter gene under the control of an IFN-β minimal promoter fused to five copies of the NF-kB consensus transcriptional response element to measure NF-kB activity and Lucia reporter gene under the control of an ISG54 minimal promoter to measure IRF activity. After 20 h incubation, IRF activity was assessed using QUANTI-luc to measure levels of Lucia and NF-kB activity was determined by measure SEAP levels at 620-655 nm. % induction was calculated from fold change in luminescence/absorbance compared to DMSO treated sample. […] EC50 values were generated by curve fit in Xlfit.
(§1) Cells grown in complete media were treated with various concentrations of a compound of the disclosure or DMSO control. Dual cells carry both secreted embryonic alkaline phosphatase (SEAP) reporter gene under the control of an IFN-β minimal promoter fused to five copies of the NF-kB consensus transcriptional response element to measure NF-kB activity and Lucia reporter gene under the control of an ISG54 minimal promoter to measure IRF activity. After 20 h incubation, IRF activity was assessed using QUANTI-luc to measure levels of Lucia and NF-kB activity was determined by measure SEAP levels at 620-655 nm. % induction was calculated from fold change in luminescence/absorbance compared to DMSO treated sample. EC50 values are generated by curve fit in Xlfit.

STING KO cells = test: IRF and NF-kB reporter activity in STING KO cells; assay type: cell-based; details: 20 hours
Method: (§2) FIG. 21 depicts cells stably expressing both or either one of the reporters to measure IRF and NF-kB activity were treated with a range of concentrations of compound 1 or DMSO control for 20 hours. IRF activity was assessed using QUANTI-luc to measure levels of Lucia and NF-kB activity was determined by measure SEAP levels at 620-655 nm. % induction was calculated from fold change in luminescence/absorbance compared to DMSO treated sample. EC50 values are generated by curve fit in Xlfit.
as §2, with “22” for “21”, “2” for “1”
as §2, with “24” for “21”, “3” for “1”
as §2, with “27” for “21”, “4” for “1”
as §1

[1] = molecular target: T1, R71H-G230A-R293Q (HAQ) variant of hSTING (Homo sapiens, UniProt Q86WV6, G230A/H232R/R293Q/R71H); test: IRF/NF-kB reporter cells, STING HAQ variant; assay type: cell-based; details: 20 hours
T1 construct: THP1-Dual-WT cells express STING-HAQ variant; endogenous in cells; host or cells: THP1-Dual-WT cells
T1 sequence (Q86WV6 whole entry R71H/G230A/H232R/R293Q): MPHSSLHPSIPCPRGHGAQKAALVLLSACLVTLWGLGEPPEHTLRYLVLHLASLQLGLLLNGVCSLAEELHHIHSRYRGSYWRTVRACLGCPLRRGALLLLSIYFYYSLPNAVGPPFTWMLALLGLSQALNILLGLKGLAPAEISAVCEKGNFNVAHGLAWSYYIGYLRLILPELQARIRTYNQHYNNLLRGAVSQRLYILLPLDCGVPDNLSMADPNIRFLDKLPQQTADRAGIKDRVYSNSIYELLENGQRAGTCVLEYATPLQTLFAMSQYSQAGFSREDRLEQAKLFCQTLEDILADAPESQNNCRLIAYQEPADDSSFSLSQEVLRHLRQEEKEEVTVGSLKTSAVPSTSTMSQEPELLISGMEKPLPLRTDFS
Method: as §2, with “22” for “21”, “2” for “1”
as §2, with “24” for “21”, “3” for “1”
as §2, with “27” for “21”, “4” for “1”
(§3) Cells grown in complete media were treated with various concentrations of a compound of the disclosure or DMSO control. […] After 20 h incubation, IRF activity was assessed using QUANTI-luc to measure levels of Lucia and NF-kB activity was determined by measure SEAP levels at 620-655 nm. % induction was calculated from fold change in luminescence/absorbance compared to DMSO treated sample. […]

wt-mSTING = molecular target: T2, wt-mSTING (Mus musculus, UniProt Q3TBT3); test: IRF/NF-kB reporter cells, wt-mSTING; assay type: cell-based; details: 20 hours
T2 construct: endogenous in cells
T2 sequence (Q3TBT3 1-378): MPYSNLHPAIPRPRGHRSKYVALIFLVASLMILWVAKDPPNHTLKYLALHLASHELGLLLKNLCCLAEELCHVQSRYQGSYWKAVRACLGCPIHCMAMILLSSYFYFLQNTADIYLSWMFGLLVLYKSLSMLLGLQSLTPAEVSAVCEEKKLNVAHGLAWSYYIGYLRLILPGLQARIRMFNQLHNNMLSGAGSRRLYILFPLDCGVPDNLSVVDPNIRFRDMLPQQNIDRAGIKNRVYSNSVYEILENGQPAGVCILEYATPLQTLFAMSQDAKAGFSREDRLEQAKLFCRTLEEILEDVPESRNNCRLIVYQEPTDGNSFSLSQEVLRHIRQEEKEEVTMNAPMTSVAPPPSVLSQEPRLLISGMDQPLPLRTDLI
Method: as §2, with “22” for “21”, “2” for “1”
as §2, with “24” for “21”, “3” for “1”
as §2, with “27” for “21”, “4” for “1”
as §3

[2] = tested on: peripheral blood mononuclear cells (PBMCs); test: IFNb and TNFa secretion by freshly isolated PBMCs (ELISA); assay type: cell-based, human; details: 20 hours
Method: (§4) FIG. 25 depicts freshly isolated peripheral blood mononuclear cells (PBMCs) treated with a range of concentrations of compound 3 or DMSO control for 20 hours. Supernatants were collected to measure IFNb and TNFa secretion by Verikine-Human IFN beta Serum ELISA kit and Human TNF Alpha ELISA kit respectively. The amount of cytokine releases into supernatant was calculated by a standard curve. Compound 3 induces IFNβ and TNFα secretion in PBMCs after treatment.
as §4, with “29” for “25”, “PBMCs that were” for “peripheral blood mononuclear cells (PBMCs)”, “4” for “3”

[3] = tested on: RAW-Lucia-ISG-STING KO cells; test: IRF-type I IFN secreted luciferase in RAW-Lucia-ISG-STING KO cells; assay type: cell-based; details: compound alone, 19 hours
Method: FIG. 4 depicts RAW-Lucia-ISG-WT and RAW-Lucia-ISG-STING KO cells were stimulated with compound 2 or compound 4, alone for 19 hours. Activity of secreted luciferase (IRF-type I IFN activity) in cell culture supernatant was measured using Invivogen's Quanti-luc. Data is shown as fold induction over DMSO treated cells (mean±standard deviation of triplicate wells per stimulant). EC50 values were calculated using XLfit.

| Compound | EC50 (NF-κβ; Homo sapiens, THP-1, 20 h incubation) [nM] | IRF activity in STING KO cells (STING KO cells) | NF-κβ in STING KO cells (STING KO cells) | activity against R71H-G230A-R293Q (HAQ) variant of hSTING [1] | activity against wt-mSTING (wt-mSTING) | IFNβ secretion [2] | TNFα secretion [2] | EC50 (NF-κβ; 20 h incubation) [nM] | IRF activity in STING KO cells [3] |
| --- | --- | --- | --- | --- | --- | --- | --- | --- | --- |
| N.N.Nc1ncnc2c1ncn2[C@@H]1O[C@@H]2COP(=O)(S)O[C@@H]3[C@H](F)[C@@H](COP(=O)(O)O[C@H]2[C@H]1F)O[C@H]3n1ccc(=O)[nH]c1=O (stereo partly drawn) [Compound 3] | > 2000 | did not induce | did not induce | possess activity | possess activity | induces | induces | – | – |
| CCCCCCCCCCOc1ccc(C(=O)Oc2ccc(CSP3(=O)OC[C@H]4O[C@@H](n5cnc6c(N)ncnc65)[C@H](F)[C@@H]4OP(=O)(O)OC[C@H]4O[C@@H](n5ccc(=O)[nH]c5=O)[C@H](O3)[C@@H]4F)cc2)cc1 (stereo partly drawn) [Compound 4] | – | did not induce | did not induce | possess activity | possess activity | induces | induces | < 50 | Neither compound induced IRF activity |
